Laboratory results taken from PubChem BioAssay AID256 (DTP/NCI, 2004).
Values joined by “and” are separate entries in the source; they are usually repeats but may differ in a detail not shown here. Equal values may be shown once. Inconclusive results and toxic doses are left out. How the source made its calls: active means survival T/C of 150% or more; inactive means T/C below 125% in these data.

Tested on: CD2F1 mice, L1210 leukemia ip, survival T/C
Test: NCI In Vivo Anticancer Drug Screen. Data for tumor model L1210 Leukemia (intraperitoneal) in CD2F1 (CDF1) mice
Conditions: endpoint: mean survival time, higher = longer survival
How it was run: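 Compound-dosed mice with transplantable tumor versus matched vehicle controls; endpoint ratio T/C reported.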

[1] = dose: 100.0 mg/kg/injection, schedule: Q01DX009 (ip), vehicle: saline with Tween-80
[2] = dose: 200.0 mg/kg/injection, schedule: Q01DX009 (ip), vehicle: saline with Tween-80
[3] = dose: 400.0 mg/kg/injection, schedule: Q01DX009 (ip), vehicle: saline with Tween-80
[4] = dose: 100.0 mg/kg/injection, schedule: Q01DX001 (ip), vehicle: saline with Tween-80
[5] = dose: 200.0 mg/kg/injection, schedule: Q01DX001 (ip), vehicle: saline with Tween-80
[6] = dose: 400.0 mg/kg/injection, schedule: Q01DX001 (ip), vehicle: saline with Tween-80

Measured: T/C

CCN(CC)C(=O)CSC#N
inactive: dose: 12.5 mg/kg/injection, schedule: Q01DX001 (ip), vehicle: Klucel (hydroxypropylcellulose) (HPC) 96 % of control | dose: 25.0 mg/kg/injection, schedule: Q01DX001 (ip), vehicle: Klucel (hydroxypropylcellulose) (HPC) 100 % of control

O=c1c2ccccc2c2nccc3c4ccccc4n1c32
inactive: [1] 103 % of control | dose: 100.0 mg/kg/injection, schedule: Q04DX003 (ip), vehicle: saline with Tween-80 102 % of control | [2] 105 % of control | dose: 200.0 mg/kg/injection, schedule: Q04DX003 (ip), vehicle: saline with Tween-80 107 % of control | [3] 100 % of control | dose: 400.0 mg/kg/injection, schedule: Q04DX003 (ip), vehicle: saline with Tween-80 107 % of control

S=c1cc(-c2ccccc2)ss1
inactive: [1] 97 % of control | [2] 97 % of control | [3] 98 % of control

BrC1=C(c2ccccc2)SC(Br)=C(c2ccccc2)S1
inactive: [4] 94 % of control | [5] 87 % of control | [6] 91 % of control

OC(c1ccccc1)(c1ccccc1)c1ccc(CN2CCCCC2)cc1
inactive: dose: 12.5 mg/kg/injection, schedule: Q01DX009 (ip), vehicle: other 94 % of control | dose: 25.0 mg/kg/injection, schedule: Q01DX009 (ip), vehicle: other 92 % of control | dose: 50.0 mg/kg/injection, schedule: Q01DX009 (ip), vehicle: other 86 % of control | dose: 100.0 mg/kg/injection, schedule: Q01DX009 (ip), vehicle: other 86 % of control | dose: 200.0 mg/kg/injection, schedule: Q01DX009 (ip), vehicle: other 87 % of control

NCCc1cc(O)c(O)c(O)c1
inactive: dose: 12.5 mg/kg/injection, schedule: Q01DX009 (ip), vehicle: saline 96 % of control and 100 % of control | dose: 25.0 mg/kg/injection, schedule: Q01DX009 (ip), vehicle: saline 100 % of control and 102 % of control | dose: 50.0 mg/kg/injection, schedule: Q01DX009 (ip), vehicle: saline 103 % of control and 106 % of control | dose: 100.0 mg/kg/injection, schedule: Q01DX009 (ip), vehicle: saline 122 % of control | dose: 200.0 mg/kg/injection, schedule: Q01DX009 (ip), vehicle: saline 119 % of control and 124 % of control | dose: 400.0 mg/kg/injection, schedule: Q01DX009 (ip), vehicle: saline 119 % of control

Cc1cn(C2CC3OP(N(C)C)OCC3O2)c(=O)[nH]c1=O (centres undefined)
inactive: dose: 12.5 mg/kg/injection, schedule: Q01DX005 (ip), vehicle: water 100 % of control | dose: 25.0 mg/kg/injection, schedule: Q01DX005 (ip), vehicle: water 101 % of control | dose: 50.0 mg/kg/injection, schedule: Q01DX005 (ip), vehicle: water 98 % of control | dose: 100.0 mg/kg/injection, schedule: Q01DX005 (ip), vehicle: water 105 % of control | dose: 200.0 mg/kg/injection, schedule: Q01DX005 (ip), vehicle: water 101 % of control

CCCCC(=O)/C=C/c1ccccc1
inactive: dose: 50.0 mg/kg/injection, schedule: Q04DX002 (ip), vehicle: saline with Tween-80 97 % of control | dose: 100.0 mg/kg/injection, schedule: Q04DX002 (ip), vehicle: saline with Tween-80 87 % of control | dose: 200.0 mg/kg/injection, schedule: Q04DX002 (ip), vehicle: saline with Tween-80 105 % of control | dose: 400.0 mg/kg/injection, schedule: Q04DX002 (ip), vehicle: saline with Tween-80 91 % of control

Cc1ccc(NC(=O)Nc2ccccc2C(N)=O)cc1[N+](=O)[O-]
inactive: dose: 50.0 mg/kg/injection, schedule: Q01DX009 (ip), vehicle: saline with Tween-80 94 % of control | [1] 98 % of control

CC(C)(C)S/C(=N/N=O)NN=O
inactive: [4] 100 % of control | [5] 102 % of control | [6] 94 % of control
